Results reported in patent US12391751B2, “Antibody against advanced glycation end products and use thereof” (Bloom Technology Corporation, priority 2018, dated 2025).

Test: Formation of singlet oxygen through photosensitizing effect, ESR with 4-OH-TEMP (Examples 21, 22)
Conditions: astaxanthin final concentration 2.5 mM; blue light
Method: 25 μL of GAL691 or Z-Lys(Z)-OH (10 mM, PBS solution), 12.5 μL of 4-hydroxy-2,2,6,6-tetramethylpiperidine (4-OH-TEMP; Tokyo Chemical Industry Co., Ltd., 400 mM, PBS solution), and 12.5 μL of PBS were mixed in a 0.6 mL microtube (Watson) to prepare a reaction solution. 4-OH-TEMP changes into a nitroxide radical by capturing singlet oxygen and is therefore often utilized in the detection of singlet oxygen using ESR (Nakamura et al., J. Clin. Biochem. Nutr., 2011, 49 (2), 87-95). The reaction solution was irradiated with light at UV 365 nm, blue 470 nm, green 530 nm, or red 630 nm for 1 hour using a portable LED light source (MeCan Imaging Inc.). Then, ESR measurement was performed using a portion (50 μL) of each reaction solution. The ESR measurement was carried out under the same conditions as in Example 10 except for some parameters. The changed measurement parameters are as follows: […]
In order to quantify the concentration of the formed nitroxide radical, the following analysis was conducted: the spectrum of the observed nitroxide radical was first simulated with SpinFit module in Xepr software (Bruker Corp.) to identify a radical species (g=2.0058, I=1, AN=17.05 G). Then, the spin concentration (μM) of the simulated nitroxide radical was determined with SpinCount module. […]

Q: For `CC1=C(/C=C/C(C)=C/C=C/C(C)=C/C=C/C=C(C)/C=C/C=C(C)/C=C/C2=C(C)C(=O)[C@@H](O)CC2(C)C)C(C)(C)C[C@H](O)C1=O` [astaxanthin], which “capture of singlet oxygen generated by GAL691 and light irradiation” value is on record?
A: Its value is “captured”.
